# Laboratory results published in US9096832B2, “Differentiation of human embryonic stem cells” (LifeScan, Inc., priority 2007, dated 2015).
# Tested on: H9 embryonic stem cells
# Assay: Microarray analysis of definitive endoderm stage cells on […] or MEFs +/- Wnt-3a (Table VI)
# Assay type: cell-based, human
# Conditions: low serum
# Method: Controls for each group included cells plated on [sequence]—coated dishes and cultured in MEF-conditioned medium or cells plated on MEFs and cultured in ES medium. All groups contained three biological replicates and each biological replicate was repeated on two separate gene chips.
# Sample preparation, hybridization, and image analysis were performed according to the Affymetrix Human Genome U133 Plus 2.0 Array. Following normalization and a log transformation, data analysis was performed using OmniViz® software (MA) and [sequence] […] Significant differences in gene expression between the samples were evaluated using analysis of variance and an F-test with adjusted P-value (Benjamini and Hochberg correction) of less-than or equal to 0.05. Only genes with a present call in at least one group were included in the analysis.
substance,measurement,setting,value
"Activin A: activin A (a member of the TGFβ superfamily), R&D Systems; 'w/o wnt' in Table VII = 100 ng/ml Activin A without Wnt3a",Intensity (log): neuropilin 1,on MATRIGEL,−1.623
same,Intensity (log): noggin,on MATRIGEL,−1.636
same,"Intensity (log): splicing factor, arginine serine-rich 5",on MATRIGEL,0.7481
same,Intensity (log): stanniocalcin 1,on MATRIGEL,2.411
same,Intensity (log): ESTs,"on MATRIGEL, r13",−4.827
same,Intensity (log): ESTs,"on MATRIGEL, r16",−3.437
same,"Intensity (log): solute carrier family 16 (monocarboxylic acid transporters), member 3","on MATRIGEL, r20",−0.06641
same,"Intensity (log): Homo sapiens solute carrier family 16 (monocarboxylic acid transporters), member 3 (SLC16A3), mRNA","on MATRIGEL, r30",0.7103
same,Intensity (log): ESTs,"on MATRIGEL, r49",−0.04716
same,Intensity (log): glycophorin B (includes Ss blood group),"on MATRIGEL, r50",−2.852
same,Intensity (log): ESTs,"on MATRIGEL, r62",−4.936
same,"Intensity (log): Homo sapiens HNF-3beta mRNA for hepatocyte nuclear factor-3 beta, complete cds","on MATRIGEL, r66",−2.718
same,Intensity (log): ESTs,"on MATRIGEL, r81",−2.336
same,Intensity (log): ESTs,"on MATRIGEL, r92",−2.896
same,Intensity (log): ESTs,"on MATRIGEL, r98",−3.098
same,Intensity (log): ESTs,"on MATRIGEL, r108",−1.401
same,"Intensity (log): Homo sapiens phorbolin-like protein MDS019 (MDS019), mRNA","on MATRIGEL, r121",−1.119
same,Intensity (log): ESTs,"on MATRIGEL, r129",−1.555
same,Intensity (log): ESTs,"on MATRIGEL, r136",−0.7315
same,Intensity (log): ESTs,"on MATRIGEL, r137",−2.036
same,Intensity (log): ESTs,"on MATRIGEL, r142",−0.6486
same,Intensity (log): ESTs,"on MATRIGEL, r145",−1.782
same,"Intensity (log): Cluster Incl. AB028021: Homo sapiens HNF-3beta mRNA for hepatocyte nuclear factor-3 beta, complete cds","on MATRIGEL, r165",−1.5339
same,Intensity (log): hypothetical protein FLJ23403,"on MATRIGEL, r205",−1.456
same,Intensity (log): matrix metalloproteinase 14 (membrane-inserted),"on MATRIGEL, r215",−2.057
same,"Intensity (log): Homo sapiens glycophorin B (includes Ss blood group) (GYPB), mRNA","on MATRIGEL, r218",−0.9473
same,Intensity (log): ESTs,"on MATRIGEL, r234",0.8128
same,Intensity (log): ESTs,"on MATRIGEL, r240",1.068
same,Intensity (log): ESTs,"on MATRIGEL, r241",−1.412
same,Intensity (log): KIAA0878 protein,"on MATRIGEL, r250",1.1189
same,Intensity (log): ESTs,"on MATRIGEL, r260",1.481
same,"Intensity (log): Homo sapiens matrix metalloproteinase 14 (membrane-inserted) (MMP14), mRNA","on MATRIGEL, r270",−0.7235
same,Intensity (log): ESTs,"on MATRIGEL, r278",0.5216
same,Intensity (log): ESTs,"on MATRIGEL, r290",0.3072
same,Intensity (log): ESTs,"on MATRIGEL, r301",−3.574
same,Intensity (log): ESTs,"on MATRIGEL, r314",−0.05909
same,"Intensity (log): Homo sapiens hypothetical protein FLJ23403 (FLJ23403), mRNA","on MATRIGEL, r315",−1.485
same,Intensity (log): ESTs,"on MATRIGEL, r319",−0.1824
same,"Intensity (log): Homo sapiens KIAA0878 protein (KIAA0878), mRNA","on MATRIGEL, r332",2.0265
same,Intensity (log): phorbolin-like protein MDS019,"on MATRIGEL, r340",−1.118
same,Intensity (log): ESTs,"on MATRIGEL, r347",0.3539
same,Intensity (log): ESTs,"on MATRIGEL, r376",−0.3497
same,Intensity (log): ESTs,"on MATRIGEL, r377",−0.9033
same,"Intensity (log): 6-phosphofructo-2-kinasefructose-2,6-biphosphatase 4",on MEFS,1.6
same,"Intensity (log): ESTs, Highly similar to IHH_HUMAN INDIAN HEDGEHOG PROTEIN PRECURSOR (H. sapiens)",on MEFS,0.5905
same,"Intensity (log): ESTs, Moderately similar to JE0284 Mm-1 cell derived transplantability-associated protein 1b (H. sapiens)",on MEFS,4.222
same,"Intensity (log): ESTs, Weakly similar to FCE2 MOUSE LOW AFFINITY IMMUNOGLOBULIN EPSILON FC RECEPTOR (M. musculus)",on MEFS,3.48
same,"Intensity (log): ESTs, Weakly similar to the 331st table hypothetical protein KIAA0555 (H. sapiens)",on MEFS,0.4436
same,Intensity (log): G protein-coupled receptor,on MEFS,5.053
same,Intensity (log): G protein-coupled receptor 49,on MEFS,2.505
same,"Intensity (log): Homo sapiens Kell blood group (KEL), mRNA",on MEFS,−0.3839
same,"Intensity (log): Homo sapiens MLL septin-like fusion (MSF), mRNA",on MEFS,−1.5
same,"Intensity (log): Homo sapiens Mix-like homeobox protein 1 (MILD1) mRNA, complete cds",on MEFS,0.922
same,"Intensity (log): Homo sapiens Rho GTPase activating protein 6 (ARHGAP6), transcript variant 2, mRNA",on MEFS,−1.285
same,"Intensity (log): Homo sapiens TBX3-iso protein (TBX3-iso), mRNA",on MEFS,1.07
same,"Intensity (log): Homo sapiens angiopoietin 2 (ANGPT2), mRNA",on MEFS,0.5968
same,"Intensity (log): Homo sapiens ankyrin-like with transmembrane domains 1 (ANKTM1), mRNA",on MEFS,2.819
same,"Intensity (log): Homo sapiens apolipoprotein A-I (APOA1), mRNA",on MEFS,2.469
same,"Intensity (log): Homo sapiens apolipoprotein A-II (APOA2), mRNA",on MEFS,4.469
same,"Intensity (log): Homo sapiens arylsulfatase E (chondrodysplasia punctata 1) (ARSE), mRNA",on MEFS,3.184
same,"Intensity (log): Homo sapiens atrophin-1 interacting protein 1; activin receptor interacting protein 1 (KIAA0705), mRNA",on MEFS,−1.32
same,"Intensity (log): Homo sapiens beta-site APP cleaving enzyme (BACE) mRNA, complete cds",on MEFS,1.754
same,"Intensity (log): Homo sapiens cDNA FLJ11550 fis, clone HEMBA1002970",on MEFS,4.216
same,"Intensity (log): Homo sapiens cDNA FLJ12993 fis, clone NT2RP3000197",on MEFS,2.069
same,"Intensity (log): Homo sapiens cDNA FLJ13221 fis, clone NT2RP4002075",on MEFS,1.31
same,"Intensity (log): Homo sapiens cardiac ventricular troponin C mRNA, complete cds",on MEFS,1.4377
same,"Intensity (log): Homo sapiens cartilage linking protein 1 (CRTL1), mRNA",on MEFS,−0.8052
same,"Intensity (log): Homo sapiens cell adhesion molecule with homology to L1CAM (close homologue of L1) (CHL1), mRNA",on MEFS,−2.5002
same,"Intensity (log): Homo sapiens chromosome 19, cosmid R31181",on MEFS,0.2239
same,Intensity (log): Homo sapiens clone 23736 mRNA sequence,on MEFS,4.507
same,"Intensity (log): Homo sapiens cryptic mRNA, complete cds",on MEFS,−0.6735
same,"Intensity (log): Homo sapiens cystatin S (CST4), mRNA",on MEFS,3.87
same,"Intensity (log): Homo sapiens cystatin SA (CST2), mRNA",on MEFS,2.1671
same,"Intensity (log): Homo sapiens cystatin SN (CST1), mRNA",on MEFS,4.64
same,"Intensity (log): Homo sapiens cytidine deaminase (CDA), mRNA",on MEFS,−1.67
same,"Intensity (log): Homo sapiens dual specificity phosphatase 4 (DUSP4), mRNA",on MEFS,4.122
same,"Intensity (log): Homo sapiens fibroblast growth factor 8 (androgen-induced) (FGF8), mRNA",on MEFS,0.01583
same,"Intensity (log): Homo sapiens fibroblast growth factor 17 (FGF17), mRNA",on MEFS,2.4872
same,"Intensity (log): Homo sapiens frizzled-related protein (FRZB), mRNA",on MEFS,3.676
same,"Intensity (log): Homo sapiens gastrin-releasing peptide (GRP), mRNA",on MEFS,0.5098
same,"Intensity (log): Homo sapiens glycophorin E (GYPE), mRNA",on MEFS,−1.501
same,Intensity (log): Homo sapiens glycophorin Erik STA (GPErik) gene complete cds,on MEFS,−0.4544
same,"Intensity (log): Homo sapiens growth differentiation factor 3 (GDF3), mRNA",on MEFS,2.875
same,"Intensity (log): Homo sapiens haptoglobin (HP), mRNA",on MEFS,0.477
